Source: PubChem BioAssay (NCI)
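Compound exposure: 48 hours, 5 concentrations, 96-well plates. TGI: concentration producing complete growth inhibition.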

Columns and labels:
Assay in all cases: NCI anticancer screen, dose series, 48 h
[1] = test system: 786-0 renal
[2] = test system: A549 NSCLC
[3] = test system: ACHN renal
[4] = test system: CAKI-1 renal
[5] = test system: CCRF-CEM leukemia
[6] = test system: COLO 205 colon
[7] = test system: DLD-1 colon
[8] = test system: DMS 114 small cell lung
[9] = test system: DMS 273 small cell lung
[10] = test system: EKVX NSCLC
[11] = test system: HCC-2998 colon
[12] = test system: HCT-15 colon
[13] = test system: HL-60(TB) leukemia
[14] = test system: HOP-18 NSCLC
[15] = test system: HOP-62 NSCLC
[16] = test system: HOP-92 NSCLC
[17] = test system: HT29 colon
[18] = test system: IGROV1 ovarian
[19] = test system: K-562 leukemia
[20] = test system: KM12 colon
[21] = test system: KM20L2 colon
[22] = test system: LOX IMVI melanoma
[23] = test system: LXFL 529 NSCLC
[24] = test system: M14 melanoma
[25] = test system: M19-MEL melanoma
[26] = test system: MALME-3M melanoma
[27] = test system: MOLT-4 leukemia
[28] = test system: NCI-H23 lung
[29] = test system: NCI-H460 lung
[30] = test system: NCI-H522 lung
[31] = test system: OVCAR-3 ovarian
[32] = test system: OVCAR-4 ovarian
[33] = test system: OVCAR-5 ovarian
[34] = test system: OVCAR-8 ovarian
[35] = test system: RPMI-8226 leukemia
[36] = test system: RXF 393 renal
[37] = test system: RXF-631 renal
[38] = test system: SF-268 CNS
[39] = test system: SF-295 CNS
[40] = test system: SF-539 CNS
[41] = test system: SK-MEL-2 melanoma
[42] = test system: SK-MEL-28 melanoma
[43] = test system: SK-MEL-5 melanoma
[44] = test system: SK-OV-3 ovarian
[45] = test system: SN12C renal
[46] = test system: SNB-19 CNS
[47] = test system: SNB-75 CNS
[48] = test system: SW-620 colon
[49] = test system: TK-10 renal
[50] = test system: U251 CNS
[51] = test system: UACC-257 melanoma
[52] = test system: UACC-62 melanoma
[53] = test system: UO-31 renal
[54] = test system: A498 renal
[55] = test system: BT-549 breast
[56] = test system: DU-145 prostate
[57] = test system: HCT-116 colon
[58] = test system: HS 578T breast
[59] = test system: MCF7 breast
[60] = test system: MDA-MB-231 breast
[61] = test system: MDA-MB-435
[62] = test system: MDA-N
[63] = test system: NCI-H226 lung
[64] = test system: NCI/ADR-RES ovarian
[65] = test system: PC-3 prostate
[66] = test system: SNB-78 CNS
[67] = test system: SR leukemia
[68] = test system: T-47D breast
[69] = test system: XF 498 CNS

CC1=CC(O)(c2ccc(-c3ccccc3Cl)cc2)OC1=O (stereo not given)
TGI [1]: > 100 µM
TGI [2]: > 100 µM
TGI [3]: > 100 µM
TGI [4]: > 100 µM
TGI [5]: > 100 µM
TGI [6]: > 100 µM
TGI [7]: > 100 µM
TGI [8]: > 100 µM
TGI [9]: > 100 µM
TGI [10]: > 100 µM
TGI [11]: > 100 µM
TGI [12]: > 100 µM
TGI [13]: > 100 µM
TGI [14]: > 100 µM
TGI [15]: > 100 µM
TGI [16]: > 100 µM
TGI [17]: > 100 µM
TGI [18]: > 100 µM
TGI [19]: > 100 µM
TGI [20]: > 100 µM
TGI [21]: > 100 µM
TGI [22]: > 100 µM
TGI [23]: > 100 µM
TGI [24]: > 100 µM
TGI [25]: > 100 µM
TGI [26]: > 100 µM
TGI [27]: > 100 µM
TGI [28]: > 100 µM
TGI [29]: > 100 µM
TGI [30]: > 100 µM
TGI [31]: > 100 µM
TGI [32]: > 100 µM
TGI [33]: > 100 µM
TGI [34]: > 100 µM
TGI [35]: > 100 µM
TGI [36]: > 100 µM
TGI [37]: > 100 µM
TGI [38]: > 100 µM
TGI [39]: > 100 µM
TGI [40]: > 100 µM
TGI [41]: > 100 µM
TGI [42]: > 100 µM
TGI [43]: > 100 µM
TGI [44]: > 100 µM
TGI [45]: > 100 µM
TGI [46]: > 100 µM
TGI [47]: > 100 µM
TGI [48]: > 100 µM
TGI [49]: > 100 µM
TGI [50]: > 100 µM
TGI [51]: > 100 µM
TGI [52]: > 100 µM
TGI [53]: > 100 µM

CC(=O)OC1=CC(n2cc(F)c(=O)[nH]c2=O)OC(C)C1=O (stereo not given)
TGI [1]: > 100 µM
TGI [54]: > 44.9 µM
TGI [2]: > 63.1 µM
TGI [3]: > 100 µM
TGI [55]: > 100 µM
TGI [4]: > 100 µM
TGI [5]: > 100 µM
TGI [6]: > 100 µM
TGI [7]: > 100 µM
TGI [8]: > 100 µM
TGI [9]: > 100 µM
TGI [56]: > 100 µM
TGI [10]: > 100 µM
TGI [11]: > 97.2 µM
TGI [57]: > 100 µM
TGI [12]: > 100 µM
TGI [13]: > 100 µM
TGI [14]: > 100 µM
TGI [15]: > 100 µM
TGI [16]: > 100 µM
TGI [58]: > 100 µM
TGI [17]: > 100 µM
TGI [18]: > 100 µM
TGI [19]: > 100 µM
TGI [20]: > 100 µM
TGI [22]: > 100 µM
TGI [23]: > 100 µM
TGI [24]: > 100 µM
TGI [25]: > 100 µM
TGI [26]: > 100 µM
TGI [59]: > 76.2 µM
TGI [60]: > 100 µM
TGI [61]: > 100 µM
TGI [62]: > 100 µM
TGI [27]: > 100 µM
TGI [63]: > 100 µM
TGI [28]: > 100 µM
TGI [29]: > 100 µM
TGI [30]: > 100 µM
TGI [64]: > 100 µM
TGI [31]: > 100 µM
TGI [32]: > 100 µM
TGI [33]: > 100 µM
TGI [34]: > 100 µM
TGI [65]: > 100 µM
TGI [35]: > 100 µM
TGI [36]: > 100 µM
TGI [38]: > 100 µM
TGI [39]: > 100 µM
TGI [40]: 29 µM
TGI [41]: > 100 µM
TGI [42]: > 100 µM
TGI [43]: > 100 µM
TGI [44]: > 100 µM
TGI [45]: > 100 µM
TGI [46]: > 100 µM
TGI [47]: 99.5 µM
TGI [66]: > 100 µM
TGI [67]: > 100 µM
TGI [48]: > 100 µM
TGI [68]: > 100 µM
TGI [49]: > 100 µM
TGI [50]: > 100 µM
TGI [51]: > 100 µM
TGI [52]: > 100 µM
TGI [53]: > 100 µM
TGI [69]: > 100 µM
